What was measured:
Type in all cases: cell-based
[1] = tested on: HECT E3 ligase; test: effect of HECT E3 ligase inhibition or knockdown on stress granule disassembly; conditions: HECT E3 ligase inhibition or siRNA knockdown; FIG. 10, FIG. 11
Description: With this information provided by the interactome mapping, E3 ligase inhibitor Heclin was employed to determine any effects on HECT E3 ligase function relative to stress granule disassembly, as illustrated in FIG. 9.

[2] = tested on: stress granule proteins; test: ubiquitination of stress granule proteins during granule formation; conditions: HEK243T stably expressing HaloTag-G3BP1, 2 μM TAK243, FIG. 6
Method: (§1) A protein-transition metal complex composite of FIG. 2 was prepared as follows. Cells (HEK243T stably expressing HaloTag-G3BP1) were seeded and grown to 95% confluency prior to labeling. The cells were incubated in DMEM media containing 5 μM of the with iridium catalyst of FIG. 2 for one hour. During this period, the iridium catalyst passes through the cell membranes and conjugates with the HaloTag-G3BP1 protein. The cells were then incubated in fresh DMEM media for one hour to remove or minimize noise from any unbound iridium catalyst.
(§2) A first portion of the Ir-catalyst loaded cells were subsequently transferred to DMEM media pre-dosed with 2 μM TAK243 and incubated for another hour. The remaining second portion (control) was dosed with the same volume of DMSO. The cells were stressed with […] NaAsO2 in DMEM for 30 minutes. Following stressing, the media was replaced with fresh DMEM for cell recovery at the indicated time. During the stressing period, the cells were dosed with protein labeling agent of 500 μM biotin-diazirine in the media 30 minutes prior to the individual time point of photolabeling. During photolabeling, the cells were subjected to 10 minutes of 450 nm blue light irradiation. FIG. 4 illustrates the foregoing testing protocol.
General proteomics preparation protocol was followed. 600 μg of total protein was loaded for streptavidin enrichment. […]

[3] = tested on: stress granules; test: stress granule disassembly after NaAsO2 stress; conditions: HEK243T stably expressing HaloTag-G3BP1; 2 μM TAK243; stressed with 500 mM NaAsO2 for 30 minutes; FIG. 6
Method: as §1, §2

stress granule disassembly [1] | Structure (SMILES) | protein ubiquitination [2] | granule disassembly [3]
delays stress granule disassembly | CCc1ccc(C=CC(=O)Nc2ccc(C(C)=O)cc2)o1 [Heclin] | – | –
– | NS(=O)(=O)OC[C@H]1C[C@@H](Nc2ccnc3cc(-c4cccc(SC(F)(F)F)c4)nn23)[C@H](O)[C@@H]1O [TAK243] | undermined or inhibited | delayed
